Columns and labels:
Phakopsora pachyrhizi = experiment: Test A: test suspension sprayed on soybean seedlings one day before inoculation with Phakopsora pachyrhizi spores (Asian soybean rust), visual disease rating; assay type: in vivo; conditions: 100 = 100% disease control, 0 = no control
Text: General protocol for preparing test suspensions for Tests A-C: the test compounds were first dissolved in acetone in an amount equal to 3% of the final volume and then suspended at the desired concentration (in ppm) in acetone and purified water (50/50 mix by volume) containing 250 ppm of the surfactant PEG400 (polyhydric alcohol esters). The resulting test suspensions were then used in Tests A-C.
The test solution was sprayed to the point of run-off on soybean seedlings. The following day the seedlings were inoculated with a spore suspension of Phakopsora pachyrhizi (the causal agent of Asian soybean rust) and incubated in a saturated atmosphere at 22° C. for 24 h, and then moved to a growth chamber at 22° C. for 8 days, after which time visual disease ratings were made.
Results for Tests A-C are given in Table A. In the Table, a rating of 100 indicates 100% disease control and a rating of 0 indicates no disease control (relative to the controls). An asterisk “*” or a double asterisk “**” next to the rating value indicates a 50 ppm or 10 ppm test suspension was used, respectively. A dash (-) indicates the compound was not tested.

[1] = system: Puccinia recondita f. sp. tritici; experiment: Test B: test suspension sprayed on wheat seedlings one day before inoculation with Puccinia recondita f. sp. tritici spores (wheat leaf rust), disease rating; assay type: in vivo; conditions: 100 = 100% disease control, 0 = no control
Text: General protocol for preparing test suspensions for Tests A-C: the test compounds were first dissolved in acetone in an amount equal to 3% of the final volume and then suspended at the desired concentration (in ppm) in acetone and purified water (50/50 mix by volume) containing 250 ppm of the surfactant PEG400 (polyhydric alcohol esters). The resulting test suspensions were then used in Tests A-C. The test solution was sprayed to the point of run-off on wheat seedlings. The following day the seedlings were inoculated with a spore suspension of Puccinia recondita f. sp. tritici (the causal agent of wheat leaf rust) and incubated in a saturated atmosphere at 20° C. for 24 h, and then moved to a growth chamber at 20° C. for 6 days, after which time disease ratings were made. Results for Tests A-C are given in Table A. In the Table, a rating of 100 indicates 100% disease control and a rating of 0 indicates no disease control (relative to the controls). An asterisk “*” or a double asterisk “**” next to the rating value indicates a 50 ppm or 10 ppm test suspension was used, respectively. A dash (-) indicates the compound was not tested.

| Compound | Test A rating (disease control) (Phakopsora pachyrhizi; 10 ppm test suspension) [%] | Test B rating (disease control) ([1]; 10 ppm test suspension) [%] | also measured |
| --- | --- | --- | --- |
| CCOC(=O)c1cnn(Cc2ccc(O/C=C(\OCCOC)C(F)(F)F)cc2)c1 [compound 54] | 0 | 0 |  |
| C=CCO/C(=C\Oc1ccc(Cn2cc(C(=O)OCC)cn2)cc1)C(F)(F)F [compound 55] | 0 | 0 |  |
| C#CCO/C(=C\Oc1ccc(Cn2cc(C(=O)OCC)cn2)cc1)C(F)(F)F [compound 56] | 38 | 0 |  |
| CCO/C(=C\Oc1ccc(S(C)(=O)=O)cc1)C(F)(F)F [compound 60] | 0 | 0 |  |
| CCO/C(=C\Oc1ccc(S(=O)(=O)N(C)C)cc1)C(F)(F)F [compound 61] | 0 | 0 |  |
| CCO/C(=C\Oc1ccc(CS(=O)(=O)CC)cc1)C(F)(F)F [compound 62] | 0 | 0 |  |
| CCCO/C(=C\Oc1ccc(Cn2cc(C(=O)OCC)cn2)cc1)C(F)(F)F [compound 65] | 100 | 0 |  |
| CCOC(=O)c1cnn(Cc2ccc(CCC3(C(F)(F)F)OCCO3)cc2)c1 [compound 67] |  |  | Test A rating (disease control) (Phakopsora pachyrhizi; 50 ppm test suspension): 65%; Test B rating (disease control) ([1]; 50 ppm test suspension): 0% |
| CCO/C(=C\Oc1ccc(C(=O)O)cc1)C(F)(F)F [compound 72] |  |  | Test A rating (disease control) (Phakopsora pachyrhizi; 50 ppm test suspension): 13%; Test B rating (disease control) ([1]; 50 ppm test suspension): 0% |
| CCO/C(=C\Oc1ccc(C(=O)OC(C)C)cc1)C(F)(F)F [compound 73] | 0 | 0 |  |
| C=CCOC(=O)c1ccc(O/C=C(\OCC)C(F)(F)F)cc1 [compound 74] | 0 | 0 |  |
| C#CCOC(=O)c1ccc(O/C=C(\OCC)C(F)(F)F)cc1 [compound 75] | 0 | 0 |  |
| CC(C)CS(=O)(=O)NCc1ccc(OCC2(C(F)(F)F)OCCO2)cc1 [compound 76] | 0 | 0 |  |
| FC(F)(F)C1(COc2ccc(CNC(=S)NC3CCCCC3)cc2)OCCO1 [compound 77] | 0 | 0 |  |
| CCOC(=O)NCc1ccc(OCC2(C(F)(F)F)OCCO2)cc1 [compound 78] | 94 | 0 |  |
| CCO/C(=C\Oc1ccc(C(C)=O)cc1)C(F)(F)F [compound 79] |  |  | Test A rating (disease control) (Phakopsora pachyrhizi; 50 ppm test suspension): 0%; Test B rating (disease control) ([1]; 50 ppm test suspension): 0% |
| CCOC(=O)Cc1nnn(Cc2ccc(O/C=C(\OCC)C(F)(F)F)cc2)n1 [compound 83] | 82 | 0 |  |
| CCOC(=O)Cc1nnnn1Cc1ccc(O/C=C(\OCC)C(F)(F)F)cc1 [compound 84] | 0 | 0 |  |
| CCO/C(=C\Oc1ccc(Cn2cncc2C(=O)OC)cc1)C(F)(F)F [compound 85] | 89 | 0 |  |
| CCO/C(=C\Oc1ccc(Cn2cnc(C(=O)OC)c2)cc1)C(F)(F)F [compound 86] | 99 | 0 |  |
| CCO/C(=C\Oc1ccc(Cn2ncc3cccnc32)cc1)C(F)(F)F [compound 87] | 0 | 0 |  |
| CCO/C(=C\Oc1ccc(Cn2cc(C(=O)OC(C)(C)C)cn2)cc1)C(F)(F)F [compound 89] | 0 | 0 |  |
| CCOC(=O)c1cc(OC)n(Cc2ccc(O/C=C(\OCC)C(F)(F)F)cc2)n1 [compound 90] | 100 | 0 |  |
| CCO/C(=C\Oc1ccc(Cn2cc(C(=O)OC)c3ccccc32)cc1)C(F)(F)F [compound 91] | 0 | 0 |  |
| CCO/C(=C\Oc1ccc(CN2OCC(C)(C)C2=O)cc1)C(F)(F)F [compound 92] | 0 | 0 |  |
| O=C(O)c1cnn(Cc2ccc(OCC3(C(F)(F)F)OCCO3)cc2)c1 [compound 93] | 96 | 0 |  |
| CCCOC(=O)c1ccc(O/C=C(\OCC)C(F)(F)F)cc1 [compound 94] | 0 | 0 |  |

| Compound | Test A rating (disease control) (Phakopsora pachyrhizi; 10 ppm test suspension) [%] | Test B rating (disease control) ([1]; 10 ppm test suspension) [%] | also measured |
| --- | --- | --- | --- |
| CCOC(=O)c1ccc(O/C=C(\OCC)C(F)(F)F)cc1 [compound 95] | 0 | 0 |  |
| CCOC(=O)C=CCOc1ccc(O/C=C(\OCC)C(F)(F)F)cc1 [compound 96] | 13 | 0 |  |
| N#Cc1ccc(OCC2(C(F)(F)F)OCCO2)cc1 [compound 98] |  |  | Test A rating (disease control) (Phakopsora pachyrhizi; 250 ppm test suspension): 100%; Test B rating (disease control) ([1]; 250 ppm test suspension): 100% |
| CCO/C(=C\Oc1ccc(C(N)=O)cc1)C(F)(F)F [compound 99] | 0 | 80 |  |
| CCO/C(=C\Oc1ccc(C(=O)NC2CC2)cc1)C(F)(F)F [compound 100] | 0 | 0 |  |
| CCO/C(=C\Oc1ccc(C(=O)NC(C)C)cc1)C(F)(F)F [compound 101] | 0 | 0 |  |
| C#CCNC(=O)c1ccc(O/C=C(\OCC)C(F)(F)F)cc1 [compound 102] | 0 | 0 |  |
| C=CCNC(=O)c1ccc(O/C=C(\OCC)C(F)(F)F)cc1 [compound 103] | 0 | 0 |  |
| CCCNC(=O)c1ccc(O/C=C(\OCC)C(F)(F)F)cc1 [compound 104] | 0 | 80 |  |
| CCO/C(=C\Oc1ccc(C(=O)NC)cc1)C(F)(F)F [compound 105] | 0 | 68 |  |
| CCO/C(=C\Oc1ccc(Cn2cc(C(=O)NCC(F)(F)F)cn2)cc1)C(F)(F)F [compound 106] | 0 | 0 |  |
| CCO/C(=C\Oc1ccc(Cn2cc(C(=O)NCC#N)cn2)cc1)C(F)(F)F [compound 107] | 0 | 0 |  |
| CCO/C(=C\Oc1ccc(CN)cc1)C(F)(F)F [compound 110] |  |  | Test A rating (disease control) (Phakopsora pachyrhizi; 50 ppm test suspension): 79%; Test B rating (disease control) ([1]; 50 ppm test suspension): 0% |
| CCOC(=O)NCc1ccc(O/C=C(\OCC)C(F)(F)F)cc1 [compound 111] | 0 | 0 |  |
| CC(C)COC(=O)NCc1ccc(OCC2(C(F)(F)F)OCCO2)cc1 [compound 112] | 0 | 0 |  |
| CCO/C(=C\Oc1ccc(CNC(=O)CC(F)(F)F)cc1)C(F)(F)F [compound 113] | 0 | 0 |  |
| CCO/C(=C\Oc1ccc(CNC(=O)C(C)OC)cc1)C(F)(F)F (stereo not shown) [compound 114] |  |  | Test A rating (disease control) (Phakopsora pachyrhizi; 50 ppm test suspension): 44%; Test B rating (disease control) ([1]; 50 ppm test suspension): 0% |
| CCOC(=O)c1cnn(Cc2ccc(SCC3(C(F)(F)F)OCCO3)cc2)c1 [compound 115] |  |  | Test A rating (disease control) (Phakopsora pachyrhizi; 250 ppm test suspension): 0%; Test B rating (disease control) ([1]; 250 ppm test suspension): 0% |
| CCO/C(=C\Oc1ccc(Cn2cc(C(=O)O)cn2)cc1)C(F)(F)F [compound 116] | 100 | 0 |  |
| CCO/C(=C\Oc1ccc(Cn2cc(C(=O)NCC3CC3)cn2)cc1)C(F)(F)F [compound 117] | 23 | 0 |  |
| CCO/C(=C\Oc1ccc(Cn2cc(C(=O)NC(C)C)cn2)cc1)C(F)(F)F [compound 118] | 0 | 0 |  |
| CCOC(=O)c1cnn(Cc2ccc(O/C=C(\OCC)C(F)(F)F)cc2)n1 [compound 119] | 97 | 0 |  |
| CCOC(=O)c1cnnn1Cc1ccc(O/C=C(\OCC)C(F)(F)F)cc1 [compound 120] | 0 | 0 |  |
| CCOC(=O)c1cn(Cc2ccc(O/C=C(\OCC)C(F)(F)F)cc2)nn1 [compound 121] | 100 | 0 |  |
| CCCCOC(=O)c1cnn(Cc2ccc(OCC3(C(F)(F)F)OCCO3)cc2)c1 [compound 125] | 100 | 0 |  |
| CCO/C(=C\Oc1ccc(Cc2nc(C(=O)NCC(F)(F)F)cs2)cc1)C(F)(F)F [compound 129] | 100 | 0 |  |
